# Data: patent US20250312258A1, “2,3-PYRROLIDINEDIONE CONJUGATES AND METHODS OF USING THEREOF” (North Carolina State University, priority 2022, published 2025)
# Like-named read-outs stand apart in the source and are kept apart here.
# Columns and labels:
# S. aureus 25923 = test: Broth microdilution MIC, S. aureus 25923; format: cell-based, Staphylococcus aureus; details: Staphylococcus aureus, 25923; read-out: MIC (S. aureus 25923)
# S. aureus 29213 = test: Broth microdilution MIC, S. aureus 29213; format: cell-based, Staphylococcus aureus; details: Staphylococcus aureus
# MRSA 33591 = test: Broth microdilution MIC, MRSA 33591; format: cell-based; details: Staphylococcus aureus, read-out: MIC (MRSA 33591)
# VRSA [1] = test: MIC against VRSA (Table 2); format: cell-based; details: Staphylococcus aureus, read-out: MIC (VRSA)
# vanC-1 VRE 49608 = test: MIC against vanC-1 VRE 49608; format: cell-based, Enterococcus spp.; details: Enterococcus
# VSE 2127 = test: MIC against VSE 2127; format: cell-based, Enterococcus spp.; details: Enterococcus; read-out: MIC (VSE 2127)
# VRSA [2] = test: MIC against VRSA strain panel (VRS/NRS strains); format: cell-based; details: Staphylococcus aureus, read-out: MIC
# VRE = test: MIC / in vitro activity against VRE strain panel; format: cell-based, Enterococcus spp.; details: for MIC: Enterococcus, VRE, read-out: MIC
# MRSA = test: MIC against MRSA strain panel; format: cell-based; details: Staphylococcus aureus, the 4th table, read-out: MIC
# MSSA = test: MIC against MSSA strain panel; format: cell-based; details: Staphylococcus aureus, the 4th table, read-out: MIC
# ATCC 29212 E. faecalis = test: MIC against ATCC 29212 E. faecalis; format: cell-based; details: Enterococcus faecalis, ATCC29212, ATCC 29212 E. faecalis, read-out: MIC
# S. pneumoniae = test: MIC against S. pneumoniae strain panel; format: cell-based; details: Streptococcus pneumoniae, read-out: MIC
# Group A Strep = test: MIC against Group A Strep strain panel; format: cell-based; details: read-out: MIC
# Group B Strep = test: MIC against Group B Strep strain panel; format: cell-based; details: read-out: MIC
# E. coli = test: MIC against E. coli strains; format: cell-based; details: the 4th table
smiles,measurement,setting,value
CCC1C(c2ccc(C(F)(F)F)cc2)=C(O)C(=O)N1C1CCC(NC)CC1 (stereo not shown) [Compound 4],MIC,S. aureus 25923,0.5 µg/mL
same,MIC,"S. aureus 29213; 29213, read-out: MIC (S. aureus 29213)",0.5 to 1 µg/mL
same,MIC,"S. aureus 29213; ATCC 29213 / MRSA, ATCC 29213 MRSA, the 4th table, read-out: MIC",2 µg/mL
same,MIC,"S. aureus 29213; ATCC 29213 / MRSA, ATCC 29213 MRSA, the 5th table, read-out: MIC",1 µg/mL
same,MIC,MRSA 33591,1 µg/mL
same,MIC,VRSA [1],1 µg/mL
same,MIC,"vanC-1 VRE 49608; VRE, the 2nd table, read-out: MIC (vanC-1 VRE 49608)",0.5 µg/mL
same,MIC,"vanC-1 VRE 49608; vanC-1 VRE 49608, the 3rd table, read-out: MIC",0.5 µg/mL
same,MIC,VSE 2127,0.5 µg/mL
same,MIC,"VRSA [2]; NRS 1 / VRSA, NRS-1 (VRSA), the 3rd table",4 µg/mL
same,MIC,"VRSA [2]; NRS 1 / VRSA, NRS-1 VRSA, the 5th table",4 µg/mL
same,MIC,"VRSA [2]; NRS 2 / VRSA, NRS-2 VRSA, the 5th table",2 µg/mL
same,MIC,"VRSA [2]; VRSA, VRS-1 (VRSA), the 3rd table",16 µg/mL
same,MIC,"VRSA [2]; VRSA, VRS-1 VRSA, the 5th table",16 µg/mL
same,MIC,"VRSA [2]; VRSA, VRS-2 (VRSA), the 3rd table",4 µg/mL
same,MIC,"VRSA [2]; VRSA, VRS-2 VRSA, the 5th table",4 µg/mL
same,MIC,"VRSA [2]; VRSA, VRS-3a VRSA, the 5th table",4 µg/mL
same,MIC,"VRSA [2]; VRSA, VRS-3b VRSA, the 5th table",> 64 µg/mL
same,MIC,"VRSA [2]; VRSA, VRS-4 (VRSA), the 3rd table",4 µg/mL
same,MIC,"VRSA [2]; VRSA, VRS-4 VRSA, the 5th table",8 µg/mL
same,MIC,"VRSA [2]; VRSA, VRS-5 VRSA, the 5th table",8 µg/mL
same,MIC,"VRSA [2]; VRSA, VRS-6 VRSA, the 5th table",16 µg/mL
same,MIC,"VRSA [2]; VRSA, VRS-7 VRSA, the 5th table",8 µg/mL
same,MIC,"VRSA [2]; VRSA, VRS-8 VRSA, the 5th table",16 µg/mL
same,MIC,"VRSA [2]; VRSA, VRS-9 VRSA, the 5th table",16 µg/mL
same,MIC,"VRSA [2]; VRSA, VRS-10 VRSA, the 5th table",16 µg/mL
same,MIC,"VRSA [2]; VRSA, VRS-11a VRSA, the 5th table",16 µg/mL
same,MIC,"VRSA [2]; VRSA, VRS-11b VRSA, the 5th table",16 µg/mL
same,MIC,"VRE; 1593 (VRE), the 3rd table",8 µg/mL
same,MIC,"VRE; 1593 VRE, the 4th table",8 µg/mL
same,MIC,"VRE; 1751 (VRE), the 3rd table",4 µg/mL
same,MIC,"VRE; 1751 VRE, the 6th table",4 µg/mL
same,MIC,"VRE; 1772 VRE, the 6th table",8 µg/mL
same,MIC,"VRE; 1946 VRE, the 6th table",8 µg/mL
same,MIC,"VRE; 2059 VRE, the 6th table",8 µg/mL
same,MIC,"VRE; 2431 (VRE), the 3rd table",8 µg/mL
same,MIC,"VRE; 2431 VRE, the 6th table",8 µg/mL
same,MIC,"VRE; 2574 VRE, the 6th table",8 µg/mL
same,MIC,"VRE; 3053 VRE, the 6th table",16 µg/mL
same,MIC,"VRE; 3183 (VRE), the 3rd table",4 µg/mL
same,MIC,"VRE; 3183 VRE, the 6th table",4 µg/mL
same,MIC,"VRE; 3190 VRE, the 6th table",8 µg/mL
same,MIC,"VRE; 3191 VRE, the 6th table",8 µg/mL
same,MIC,"VRE; 3222 (VRE, the 3rd table)",8 µg/mL
same,MIC,"VRE; 3222 VRE, the 6th table",8 µg/mL
same,MIC,"VRE; 3235 VRE, the 6th table",8 µg/mL
same,MIC,"VRE; 3239 VRE, the 6th table",8 µg/mL
same,MIC,"VRE; 3241 VRE, the 6th table",8 µg/mL
same,MIC,"VRE; 3623 VRE, the 6th table",8 µg/mL
same,in vitro activity against vancomycin-resistant Enterococcus spp. (VRE) compared with vancomycin,VRE; FIGS. 4A-4D,superior in vitro activity
same,MIC,MRSA; 6215 MRSA,1 µg/mL
same,MIC,MRSA; 6217 MRSA,1 µg/mL
same,MIC,MRSA; 6218 MRSA,1 µg/mL
same,MIC,MRSA; 6220 MRSA,1 µg/mL
same,MIC,MRSA; 6231 MRSA,1 µg/mL
same,MIC,MRSA; AR-978 MRSA,1 µg/mL
same,MIC,MRSA; AR-979 MRSA,1 µg/mL
same,MIC,MRSA; AR-993 MRSA,1 µg/mL
same,MIC,MRSA; AR-997 MRSA,1 µg/mL
same,MIC,MSSA; VGP16-94 MSSA,1 µg/mL
same,MIC,MSSA; VGP16-95 MSSA,2 µg/mL
same,MIC,MSSA; VGP16-96 MSSA,1 µg/mL
same,MIC,MSSA; VGP16-97 MSSA,1 µg/mL
same,MIC,MSSA; VGP16-98 MSSA,1 µg/mL
same,MIC,MSSA; VGP16-99 MSSA,1 µg/mL
same,MIC,MSSA; VGP16-100 MSSA,1 µg/mL
same,MIC,MSSA; VGP16-101 MSSA,1 µg/mL
same,MIC,MSSA; VGP16-116 MSSA,1 µg/mL
same,MIC,MSSA; VGP16-117 MSSA,1 µg/mL
same,MIC,ATCC 29212 E. faecalis; the 4th table,2 µg/mL
same,MIC,ATCC 29212 E. faecalis; the 6th table,2 µg/mL
same,MIC,"S. pneumoniae; ATCC49619, ATCC 49619 S. pneumoniae, CA-MHB w/5% LHB, the 4th table",0.25 µg/mL
same,MIC,"S. pneumoniae; ATCC49619, ATCC 49619 S. pneumoniae, the 7th table",0.5 µg/mL
same,MIC,"S. pneumoniae; CO314937 S. pneumoniae, CA-MHB w/5% LHB, the 4th table",0.5 µg/mL
same,MIC,"S. pneumoniae; CT3-5008 S. pneumoniae, the 7th table",0.5 µg/mL
same,MIC,"S. pneumoniae; CT3-5803 S. pneumoniae, the 7th table",0.5 µg/mL
same,MIC,"S. pneumoniae; CT3-8501 S. pneumoniae, the 7th table",0.5 µg/mL
same,MIC,"S. pneumoniae; CT4-3048 S. pneumoniae, the 7th table",0.5 µg/mL
same,MIC,"S. pneumoniae; CT4-9046 S. pneumoniae, the 7th table",0.25 µg/mL
same,MIC,"S. pneumoniae; CT4-9693 S. pneumoniae, the 7th table",0.5 µg/mL
same,MIC,"S. pneumoniae; CT5-6541 S. pneumoniae, the 7th table",0.5 µg/mL
same,MIC,"S. pneumoniae; CT5-8032 S. pneumoniae, the 7th table",0.5 µg/mL
same,MIC,"S. pneumoniae; CT5-9124 S. pneumoniae, the 7th table",0.25 µg/mL
same,MIC,"S. pneumoniae; CT6-0670 S. pneumoniae, the 7th table",0.5 µg/mL
same,MIC,"S. pneumoniae; CT6-7691 S. pneumoniae, the 7th table",0.5 µg/mL
same,MIC,"S. pneumoniae; CT0200-2241 S. pneumoniae, the 7th table",0.5 µg/mL
same,MIC,"S. pneumoniae; CT0200-2730 S. pneumoniae, the 7th table",0.5 µg/mL
same,MIC,"S. pneumoniae; MD77773 S. pneumoniae, CA-MHB w/5% LHB, the 4th table",0.5 µg/mL
same,MIC,"Group A Strep; 2007-11 Group A Strep, the 8th table",0.5 µg/mL
same,MIC,"Group A Strep; 2007-28 Group A Strep, the 8th table",0.5 µg/mL
same,MIC,"Group A Strep; 2007-49 Group A Strep, the 8th table",0.5 µg/mL
same,MIC,"Group A Strep; 2007-73 Group A Strep, the 8th table",0.5 µg/mL
same,MIC,"Group A Strep; 2007-107 Group A Strep, the 8th table",0.5 µg/mL
same,MIC,"Group A Strep; 2007-1101 Group A Strep, the 8th table",0.5 µg/mL
same,MIC,"Group A Strep; 2008-06 Group A Strep, the 8th table",0.5 µg/mL
same,MIC,"Group A Strep; 2008-45 Group A Strep, the 8th table",0.5 µg/mL
same,MIC,"Group A Strep; 2008-818 Group A Strep, CA-MHB w/5% LHB, the 4th table",0.25 µg/mL
same,MIC,"Group A Strep; 2008-1565 Group A Strep, the 8th table",0.5 µg/mL
same,MIC,"Group A Strep; 2008-1692 Group A Strep, the 8th table",0.5 µg/mL
same,MIC,"Group A Strep; 2008-1732 Group A Strep, CA-MHB w/5% LHB, the 4th table",0.25 µg/mL
same,MIC,"Group A Strep; 2009-8 Group A Strep, the 8th table",0.5 µg/mL
same,MIC,"Group A Strep; 2009-37 Group A Strep, CA-MHB w/5% LHB, the 4th table",0.5 µg/mL
same,MIC,"Group A Strep; 2009-106 Group A Strep, the 8th table",0.5 µg/mL
same,MIC,"Group A Strep; 2009-109 Group A Strep, the 8th table",0.5 µg/mL
same,MIC,"Group A Strep; 2009-114 Group A Strep, the 8th table",0.5 µg/mL
same,MIC,"Group A Strep; 2009-136 Group A Strep, the 8th table",0.5 µg/mL
same,MIC,"Group B Strep; 2008-57 Group B Strep, the 9th table",0.5 µg/mL
same,MIC,"Group B Strep; 2008-70 Group B Strep, the 9th table",0.5 µg/mL
same,MIC,"Group B Strep; 2008-87 Group B Strep, CA-MHB w/5% LHB, the 4th table",0.5 µg/mL
same,MIC,"Group B Strep; 2008-115 Group B Strep, the 9th table",0.5 µg/mL
same,MIC,"Group B Strep; 2009-20 Group B Strep, the 9th table",0.5 µg/mL
same,MIC,"Group B Strep; 2009-40 Group B Strep, the 9th table",0.5 µg/mL
same,MIC,"Group B Strep; 2009-43 Group B Strep, the 9th table",0.5 µg/mL
same,MIC,"Group B Strep; 2009-51 Group B Strep, the 9th table",0.5 µg/mL
same,MIC,"Group B Strep; 2009-57 Group B Strep, the 9th table",0.5 µg/mL
same,MIC,"Group B Strep; 2009-59 Group B Strep, the 9th table",0.5 µg/mL
same,MIC,"Group B Strep; 2009-60 Group B Strep, the 9th table",0.5 µg/mL
same,MIC,"Group B Strep; 2009-61 Group B Strep, CA-MHB w/5% LHB, the 4th table",0.5 µg/mL
same,MIC,"Group B Strep; 2009-62 Group B Strep, CA-MHB w/5% LHB, the 4th table",0.25 µg/mL
same,MIC,"Group B Strep; J4182 Group B Strep, the 9th table",0.5 µg/mL
same,MIC,"Group B Strep; J4183 Group B Strep, the 9th table",0.5 µg/mL
same,MIC,"Group B Strep; J4185 Group B Strep, the 9th table",0.5 µg/mL
same,MIC,"Group B Strep; J4186 Group B Strep, the 9th table",0.5 µg/mL
same,MIC,"Group B Strep; J4222 Group B Strep, the 9th table",0.5 µg/mL
same,MIC,E. coli; AR-137 E. coli,>64 µg/mL
same,MIC,"E. coli; Escherichia coli, ATCC25922, ATCC 25922 E. coli, read-out: MIC",> 64 µg/mL
same,MIC,"E. coli; Escherichia coli, AR-451 E. coli, read-out: MIC",> 64 µg/mL
